The source made the active and inactive calls.
Tests used:
[1] = system: Vero; assay: cells; assay type: functional; conditions: Chlorocebus sabaeus
[2] = system: Escherichia coli; assay: microbe, parasite or virus in culture
[3] = molecular target: T1, Heat shock factor protein 1 (Mus musculus, UniProt P38532); assay: enhancement of HSF1-driven luciferase signal – cell-based, NIH3T3, luminescence, dose retest, confirmation (AID 435004); assay type: functional;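 further: stress induced by proteasome inhibitor MG132 added 30 min after compound; luciferase reporter driven by HSF1 response element in NIH3T3 cells; actives raise luminescence as potentiators of the MG132 stress response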
T1 sequence (P38532 whole entry): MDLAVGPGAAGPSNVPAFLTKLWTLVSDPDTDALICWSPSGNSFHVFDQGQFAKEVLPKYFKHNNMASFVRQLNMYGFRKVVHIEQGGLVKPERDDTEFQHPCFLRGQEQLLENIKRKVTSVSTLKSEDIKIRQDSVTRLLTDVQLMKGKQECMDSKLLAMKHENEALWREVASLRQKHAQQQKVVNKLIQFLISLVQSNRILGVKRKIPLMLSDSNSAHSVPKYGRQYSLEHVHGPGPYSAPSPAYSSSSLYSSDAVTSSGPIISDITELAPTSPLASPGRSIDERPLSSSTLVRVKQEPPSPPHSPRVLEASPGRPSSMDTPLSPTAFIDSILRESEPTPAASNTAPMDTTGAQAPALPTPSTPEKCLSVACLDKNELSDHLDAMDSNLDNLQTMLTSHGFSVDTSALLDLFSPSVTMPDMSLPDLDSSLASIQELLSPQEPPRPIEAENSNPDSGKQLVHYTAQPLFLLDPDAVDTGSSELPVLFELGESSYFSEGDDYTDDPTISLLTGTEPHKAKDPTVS

[4] = molecular target: Delta-type opioid receptor (Homo sapiens, UniProt P41143); assay: Counterscreen for agonists of heterodimerization of the mu 1 (OPRM1) and delta 1 (OPRD1) opioid receptors: Luminescence-based cell-based high throughput dose response assay to identify agonists of OPRD1 homodimerization. [Related pubchem assays (depositor defined):AID504326, AID504355, AID504692, AID504904, AID504905]; assay type: functional
[5] = molecular target: Mu-type opioid receptor (Homo sapiens, UniProt P35372); assay: Counterscreen for agonists of heterodimerization of the mu 1 (OPRM1) and delta 1 (OPRD1) opioid receptors: Luminescence-based cell-based high throughput dose response assay to identify agonists of OPRM1 homodimerization.; assay type: functional;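 further: U2OS cells expressing OPRM1 and beta-arrestin as split beta-galactosidase partners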
[6] = molecular target: 5-hydroxytryptamine receptor 5A (Homo sapiens, UniProt P47898); assay: Counterscreen for agonists of OPRM1-OPRD1 heterodimerization: luminescence-based cell-based high throughput dose response assay to identify agonists of 5-hydroxytryptamine (serotonin) 5A receptor (HTR5A). [Related pubchem assays (depositor defined):AID504326, AID504355, AID504692, AID504904, AID504905]; assay type: functional
[7] = system: INS1; assay: INS-1E survival protection against cytokine death – cell-based, luminescence, retest, dose response (AID 449756); assay type: functional; conditions: Rattus norvegicus;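 further: cell death triggered by IL-1 beta plus TNF-alpha plus IFN-gamma mixture; protective hits raise ATP signal compared with cytokine alone wells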
[8] = cells; assay type: functional, cell-based
[9] = loss of viability in HepG2 cells – cell-based, CellTiter-Glo, cherry-picked, cytotoxicity control for Shn3 inhibitor project, dose response (AID 624134); assay type: functional
[10] = cells; assay type: functional, cell-based; remark: listed apart in the source
[11] = reduction of Shn3 3'UTR-driven luciferase in osteoblasts – cell-based, Clone20 osteoblasts, firefly luciferase, cherry-picked, dose response (AID 624132); assay type: functional;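 further: firefly luciferase luminescence from reporter carrying the Shn3 3'UTR in osteoblasts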
[12] = decrease of insulin promoter-GFP reporter – imaging, high-content screening, mouse beta cells (AID 1628); assay type: functional; conditions: MIN6
[13] = non-specific 3'UTR reporter inhibition in Clone20-Shn3RL – cell-based, Renilla luciferase, cherry-picked, counter-screen for Shn3 inhibitor project, dose response (AID 624133); assay type: functional
[14] = MIN6 cell viability loss – mouse insulinoma, cytotoxicity control, dose response (AID 2122); assay type: functional;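 further: confirmatory high-throughput counterscreen run to flag cytotoxic compounds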

Chain of Mu-type opioid receptor (P35372 whole entry): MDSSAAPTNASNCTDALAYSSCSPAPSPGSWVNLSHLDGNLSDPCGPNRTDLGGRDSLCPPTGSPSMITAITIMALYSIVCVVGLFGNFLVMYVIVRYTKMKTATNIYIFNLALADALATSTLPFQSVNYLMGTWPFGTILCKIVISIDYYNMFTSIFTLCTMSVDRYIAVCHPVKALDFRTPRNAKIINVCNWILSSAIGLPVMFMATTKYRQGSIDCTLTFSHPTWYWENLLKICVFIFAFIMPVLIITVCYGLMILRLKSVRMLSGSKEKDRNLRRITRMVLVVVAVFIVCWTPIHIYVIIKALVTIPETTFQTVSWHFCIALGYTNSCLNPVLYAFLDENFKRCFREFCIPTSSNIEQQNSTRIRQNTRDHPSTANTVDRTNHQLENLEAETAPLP
Chain of Delta-type opioid receptor (P41143 whole entry): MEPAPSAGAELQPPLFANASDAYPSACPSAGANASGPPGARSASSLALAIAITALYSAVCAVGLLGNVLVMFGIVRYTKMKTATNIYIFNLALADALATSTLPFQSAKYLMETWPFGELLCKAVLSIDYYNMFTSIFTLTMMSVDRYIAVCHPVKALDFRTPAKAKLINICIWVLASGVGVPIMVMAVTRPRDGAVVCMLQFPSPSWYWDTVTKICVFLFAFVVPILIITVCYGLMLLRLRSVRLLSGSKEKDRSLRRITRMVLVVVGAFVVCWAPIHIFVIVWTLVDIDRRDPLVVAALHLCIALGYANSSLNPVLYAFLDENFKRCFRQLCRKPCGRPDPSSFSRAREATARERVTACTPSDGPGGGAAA
Chain of 5-hydroxytryptamine receptor 5A (P47898 whole entry): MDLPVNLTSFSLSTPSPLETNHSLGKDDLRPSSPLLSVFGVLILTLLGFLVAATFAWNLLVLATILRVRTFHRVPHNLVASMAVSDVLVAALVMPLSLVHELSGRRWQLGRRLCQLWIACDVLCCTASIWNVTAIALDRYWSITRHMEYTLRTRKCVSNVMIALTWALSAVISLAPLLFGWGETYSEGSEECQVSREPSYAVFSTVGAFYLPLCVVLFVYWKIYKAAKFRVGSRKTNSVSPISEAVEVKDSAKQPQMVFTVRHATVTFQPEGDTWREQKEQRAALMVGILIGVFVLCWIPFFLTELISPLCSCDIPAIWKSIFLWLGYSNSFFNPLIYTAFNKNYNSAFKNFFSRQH

O=C1N(c2ccccc2C(F)(F)F)OC1(Cc1ccccc1)c1ccccc1 (stereo not drawn)
CC50 [1]: > 25 µM (active)

COC(=O)c1c(NC(=O)CCN2CCOCC2)sc2c1CCCC2
AC50 [2]: 85.8 µM (active)

COc1ccc(-c2nnc(Nc3ccc(CC(N)=O)cc3)c3ccccc23)cc1
EC50 [3]: > 260 µM (inactive) | AC50 [2]: 23.2 µM (active)

CN(C)C(CNC(=O)CSC(=S)N1CCCC1)c1ccccc1 (stereo not drawn)
EC50 [4]: > 92.5 µM (inactive) | EC50 [5]: 17.1 µM (inactive) | EC50 [6]: > 92.5 µM (inactive)

COc1ccccc1NC(=O)c1sc2nc(C)cc(C)c2c1N
EC50 [4]: > 92.5 µM (inactive) | EC50 [5]: > 92.5 µM (inactive) | EC50 [6]: > 92.5 µM (inactive)

Cc1ccc(Nc2c(-c3ccccn3)nc3ccc(C)cn23)cc1
AC50 [7]: 3 µM (active) | EC50 [8]: 38.3 µM (active) | AC50 [9]: 5.21 µM (active) | EC50 [10]: 79.5 µM (active) | AC50 [11]: 1.74 µM (active) | IC50 [12]: 1.95 µM (active) | AC50 [13]: 3.02 µM (active) | IC50 [14]: 0.539 µM (active)

Source: ChEMBL document CHEMBL1201862, “PubChem BioAssay data set” (2004)
